According to the NIST ThermoML archive (doi:10.1021/je700751a):

Test: mn = molality of the nth substance listed, in mol/kg
Settings: 101 kPa, Liquid; for viscosity: Capillary tube (Ostwald / Ubbelohde) method

O=C([O-])[C@H](O)[C@@H](O)C(=O)[O-].[K+].[K+] [dipotassium L-tartrate] + O
Settings	mass density, 298.15 K [kg/m3]	mass density, 308.15 K [kg/m3]	mass density, 318.15 K [kg/m3]	speed of sound, 298.15 K [m/s]	viscosity, 298.15 K [mPa·s]	viscosity, 308.15 K [mPa·s]	viscosity, 318.15 K [mPa·s]
m1 = 0.0222	–	–	–	–	0.879	0.718	0.595
m1 = 0.0312	–	–	–	–	0.892	0.723	0.601
m1 = 0.0398	1002.88	999.78	995.909	1502.5	–	–	–
m1 = 0.0498	1004.29	1001.18	997.282	1503.7	–	–	–
m1 = 0.0516	–	–	–	–	0.902	0.731	0.609
m1 = 0.0615	1005.99	1002.85	998.942	1505.4	–	–	–
m1 = 0.0697	1007.18	1004.01	1000.09	1506.5	–	–	–
m1 = 0.073	–	–	–	–	0.911	0.737	0.612
m1 = 0.0797	1008.56	1005.39	1001.44	1508.8	–	–	–
m1 = 0.0897	1010.01	1006.8	1002.86	1509.5	–	–	–
m1 = 0.0909	–	–	–	–	0.917	0.75	0.623
m1 = 0.0996	1011.42	1008.21	1004.24	1510.3	–	–	–
m1 = 0.1822	–	–	–	–	0.948	0.773	0.639
m1 = 0.2842	–	–	–	–	0.985	0.799	0.665
m1 = 0.3	1039.02	1035.42	1031.19	1535.7	–	–	–
m1 = 0.3843	–	–	–	–	1.012	0.821	0.693
m1 = 0.4639	–	–	–	–	1.04	0.847	0.705
m1 = 0.4985	1064.81	1060.93	1056.45	1559.5	–	–	–
m1 = 0.6883	–	–	–	–	1.125	0.916	0.764
m1 = 0.6922	1088.8	1084.65	1079.98	1582.2	–	–	–
m1 = 0.8934	1112.36	1108	1103.17	1605.2	–	–	–
m1 = 1.098	–	–	–	–	1.294	1.054	0.879
m1 = 1.284	1155.12	1150.41	1145.3	1648.3	–	–	–
m1 = 1.468	–	–	–	–	1.474	1.206	1.006
m1 = 1.579	1185.12	1180.16	1174.96	1680.5	–	–	–
m1 = 1.878	–	–	–	–	1.71	1.389	1.157
m1 = 1.965	1221.2	1216.05	1210.59	1718.3	–	–	–
m1 = 2.443	1262.59	1257.21	1251.59	1764	–	–	–
m1 = 2.602	–	–	–	–	2.243	1.801	1.483
m1 = 2.923	1299.6	1294.09	1288.34	1805.2	–	–	–
m1 = 3.391	1331.8	1326.15	1320.32	1841.5	–	–	–
m1 = 3.405	–	–	–	–	3.301	2.613	2.12
m1 = 3.858	1362.45	1356.74	1350.83	1876.2	–	–	–
m1 = 4.077	–	–	–	–	4.296	3.367	2.7
m1 = 4.324	1389.87	1384.06	1378.1	1907	–	–	–
m1 = 4.785	1414.66	1408.83	1402.83	1935.4	–	–	–
m1 = 5.188	–	–	–	–	6.378	4.841	3.829
m1 = 5.238	1437.73	1431.81	1425.78	1960.6	–	–	–
m1 = 5.378	–	–	–	–	7.066	5.339	4.176
m1 = 5.692	1459.07	1453.12	1447.06	1984.8	–	–	–
